Where no end group is shown, it is not given here. Where only a bound is given, the exact number is not on record here.

The test system of series [1] is BL+DN coculture. The format is cell-based, B. licheniformis + D. nishinomiyaensis. The method, then:
(§1) All of the bacterial species were grown overnight at 37 °C in LB broth. 10^7 CFU/mL of cells were resuspended in fresh culture and grown until the mid log phase. , The bacterial cells were adjusted to a concentration of 5 × 10^5 CFU/mL to quantify the MIC. Equal volumes of the respective bacterial cultures were incubated with the serially diluted peptides in 96-well microtiter plate and incubated overnight at 37 °C in ambient air. Microorganisms without peptides were treated as the positive control, while uninoculated broth was used as the negative control. The MIC was taken as the lowest peptide concentration at which observable bacteria growth was inhibited, as measured by a microplate reader (Biotek Synergy H1 microplate reader). Experiments were performed in triplicates, and the mean MIC values were determined. A similar study was performed to understand the effect of peptide purity, i.e., ranging from 70 to 95%, on the peptide MIC. […]
(§2) fresh medium at equal proportions (v/v). Multiple combinations of microbial cocultures were prepared […]
(§3) Table S2. Schematic representation of the microbial cocultures grown in lab.
(§4) Bacterial clusters Fungal clusters
(§5) Gram-positive Gram-negative
(§6) Actinobacteria/DN Firmicutes/BL Proteobacteria/SP Ascomycota/HR […]
(§7) (b) The three upper panels […]
(§8) controlling the growth of microbial cocultures.

Series [2] deals with HR+BL coculture. It counts as cell-based, H. resinae + B. licheniformis. The method, then:
as §1, §2, §3, §4, §5, §6, §7, §8

The subject of series [3] is HR+DN+SP coculture. The format is cell-based, H. resinae + D. nishinomiyaensis + S. paucimobilis. The method, then:
as §1, §2, §3, §4, §5, §6, §7, §8

Series [4] deals with HR+SP coculture. It counts as cell-based, H. resinae + S. paucimobilis. The method, then:
as §1, §2, §3, §4, §5, §6, §7, §8

The subject of series [5] is HR+DN coculture. The format is cell-based, H. resinae + D. nishinomiyaensis. The method, then:
as §1, §2, §3, §4, §5, §6, §7, §8

Series [6] deals with DN+SP coculture. It counts as cell-based, D. nishinomiyaensis + S. paucimobilis. How it is done:
as §1, §2, §3, §4, §5, §6, §7, §8

In series [7] the test system is Macrococcus caseolyticus (MC) ATCC 13548. It counts as cell-based. The method, boiled down:
(§9)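 Peptides were serially diluted and incubated overnight at 37 °C with an equal volume of mid-log bacteria at 5 × 10^5 CFU/mL, previously grown in LB broth. Growth inhibition was read on a plate reader, and mean MIC from triplicates was reported.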

The subject of series [8] is Pseudomonas aeruginosa (PA) ATCC 39327. The format is cell-based. The note with it: ATCC 39327. The essentials: as §9
In series [9] the test system is Dermacoccus nishinomiyaensis (DN) ATCC 29093. It counts as cell-based. The method, boiled down: as §9
The subject of series [10] is Bacillus licheniformis (BL) ATCC 14580. It counts as cell-based. The note with it: ATCC 14580. The method, boiled down: as §9
Series [11] relates to Micrococcus yunnanensis (MY) ATCC 12698. The format is cell-based. The method, boiled down: as §9
Series [12] deals with Sphingomonas paucimobilis (SP). The format is cell-based. The essentials:
as §9

Series [13] relates to B. licheniformis. The format is cell-based, Bacillus licheniformis. The note with it: 2 h. The method, then:
(§10) The stability of the peptides against one Gram-positive (B. licheniformis) and Gram-negative (S. paucimobilis) bacteria was assessed by determining their MIC in chymotrypsin (protease), serum, and salt (NaCl). The experiments were adopted from Selvarajan et.al. The fold change in MIC with respect to the control was calculated and determined for each peptide against the microbial clusters.
(§11) To determine the susceptibility of the engineered peptides, which are abundant in Trp, to protease degradation, chymotrypsin, which cleaves Tyr, Phe, and Trp at physiological pH was chosen as the model protease. The protocol described by Wang et.al. (2014) was used with slight modifications. Peptides were incubated with chymotrypsin at a molar ratio of 40:1 (peptide: protease) in 10 mM PBS buffer (pH7.4) at 37 °C, and samples were analyzed after 2 h. The enzyme reaction was terminated by incubating the samples at 80 °C for 10 min. The incubated peptide mixtures were then serially diluted in 96-well plates to determine the MIC values of the microbial strains.
(§12) The stability of the peptides in the presence of the serum was tested using a 10% fetal bovine serum (heat inactivated).
(§13) We also studied the effects of 600 mM NaCl (in vitro) and natural seawater (NSW) on the MICs of the engineered peptides.

Series [14] concerns SP+BL coculture. The format is cell-based, S. paucimobilis + B. licheniformis. How it is done:
as §1, §2, §3, §4, §5, §6, §7, §8

Series [15] deals with S. paucimobilis. It counts as cell-based, Sphingomonas paucimobilis. The note with it: 2 h. The method, then:
as §10, §11, §12, §13

For series [16], the system named is HR+BL+SP coculture. The format is cell-based, H. resinae + B. licheniformis + S. paucimobilis. How it is done:
as §1, §2, §3, §4, §5, §6, §7, §8

Series [17] concerns HR+BL+DN coculture. The format is cell-based, H. resinae + B. licheniformis + D. nishinomiyaensis. How it is done:
as §1, §2, §3, §4, §5, §6, §7, §8

Series [18] deals with Bacillus licheniformis (BL). Kind of series: Effectiveness of peptides on spiked fuel samples (aqueous layer). The note with it: initial screening in spiked fuel. Details: key: (+) =1 (implying peptide activity in fuel environment); (X) = 0 (implying no activity in the desired range, indicated by microbial proliferation); Fuel x = -1(implying no activity in fuel environment). It counts as cell-based. The method, boiled down:
(§14)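 Fuel filter-sterilized and mixed 1:1 (v/v) with BH medium; bacteria inoculated into the bottom aqueous phase, with engineered peptides dosed at their respective MICs into the aqueous layer. Incubated aerobically at 30 °C for 30 days; aqueous and fuel layers sampled at 7, 14, 21 and 30 days and plated on LBA for viability.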

Series [19] has as its system Micrococcus yunnanensis (MY). The series is described as above. The format is cell-based. Details: key: (+) =1 (implying peptide activity in fuel environment); (X) = 0 (implying no activity in the desired range, indicated by microbial proliferation); Fuel x = -1(implying no activity in fuel environment). The conditions noted are these: initial screening in spiked fuel. The essentials:
as §14

In series [20] the test system is Kocuria rosea (KR). The series is described as above. It counts as cell-based. Details: key: (+) =1 (implying peptide activity in fuel environment); (X) = 0 (implying no activity in the desired range, indicated by microbial proliferation); Fuel x = -1(implying no activity in fuel environment). The note with it: initial screening in spiked fuel. The essentials: as §14

The subject of series [21] is Macrococcus caseolyticus (MC). The series is described as above. It counts as cell-based. Details: key: (+) =1 (implying peptide activity in fuel environment); (X) = 0 (implying no activity in the desired range, indicated by microbial proliferation); Fuel x = -1(implying no activity in fuel environment). The note with it: initial screening in spiked fuel. The method, boiled down: as §14

Series [22] concerns Pseudomonas aeruginosa (PA). Described as above. The format is cell-based. Details: key: (+) =1 (implying peptide activity in fuel environment); (X) = 0 (implying no activity in the desired range, indicated by microbial proliferation); Fuel x = -1(implying no activity in fuel environment). The conditions noted are these: initial screening in spiked fuel. The method, boiled down:
as §14

Series [23] relates to Sphingomonas paucimobilis (SP). The series is described as above. The format is cell-based. Details: key: (+) =1 (implying peptide activity in fuel environment); (X) = 0 (implying no activity in the desired range, indicated by microbial proliferation); Fuel x = -1(implying no activity in fuel environment). The conditions noted are these: initial screening in spiked fuel. The method, boiled down:
as §14

Series [24] concerns Roseomonas mucosa (RM). The description is as above. It counts as cell-based. The conditions noted are these: initial screening in spiked fuel. Details: key: (+) =1 (implying peptide activity in fuel environment); (X) = 0 (implying no activity in the desired range, indicated by microbial proliferation); Fuel x = -1(implying no activity in fuel environment). The essentials: as §14

In series [25] the test system is Dermacoccus nishinomiyaensis (DN). The description is as above. It counts as cell-based. Details: key: (+) =1 (implying peptide activity in fuel environment); (X) = 0 (implying no activity in the desired range, indicated by microbial proliferation); Fuel x = -1(implying no activity in fuel environment). The note with it: initial screening in spiked fuel. The essentials: as §14

The subject of series [26] is Hormoconis resinae (HR). The series is described as above. It counts as cell-based. Details: key: (+) =1 (implying peptide activity in fuel environment); (X) = 0 (implying no activity in the desired range, indicated by microbial proliferation); Fuel x = -1(implying no activity in fuel environment). The note with it: initial screening in spiked fuel. The method, boiled down:
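Filter-sterilized fuel was mixed 1:1 (v/v) with BH medium, the organism was inoculated into the bottom aqueous phase, and peptides were added there at their MICs. Cultures were held aerobically at 30 °C for 30 days, with both layers plated on LBA at 7, 14, 21 and 30 days for viability.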

Series [27] relates to microbial clusters MY, KR, DN, MC, BL, RM, SP, PA, HR. Kind of series: Broad-spectrum activity score (in-house scoring matrix). The conditions noted are these: sum over 9 microbial clusters: (+) = 1, (X) = 0, Fuel x = -1. The method, boiled down:
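Each peptide is scored per microbial cluster from its MIC/efficacy with fuel co-incubation: +1 = active in the fuel environment, 0 = no activity in the desired range (microbial proliferation), −1 = no activity in the fuel environment. The score is built from these per-cluster points.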

Series [28] relates to Hormoconis resinae (HR) ATCC 20267. The format is cell-based. How it is done: All of the bacterial species were grown overnight at 37 °C in LB broth. 10^7 CFU/mL of cells were resuspended in fresh culture and grown until the mid log phase. , The bacterial cells were adjusted to a concentration of 5 × 10^5 CFU/mL to quantify the MIC. Equal volumes of the respective bacterial cultures were incubated with the serially diluted peptides in 96-well microtiter plate and incubated overnight at 37 °C in ambient air. Microorganisms without peptides were treated as the positive control, while uninoculated broth was used as the negative control. The MIC was taken as the lowest peptide concentration at which observable bacteria growth was inhibited, as measured by a microplate reader (Biotek Synergy H1 microplate reader). Experiments were performed in triplicates, and the mean MIC values were determined. A similar study was performed to understand the effect of peptide purity, i.e., ranging from 70 to 95%, on the peptide MIC.
The same experimental procedures that were conducted for the antibacterial assay were used to determine the MIC of the peptides against the fungal strain, H. resinae.

In series [29] the test system is Roseomonas mucosa (RM) ATCC BAA-692. The format is cell-based. The essentials: as §9
The nature of series [30]: HPLC retention time as a function of peptide hydrophobicity. The format is physicochemical. The note with it: chromatographic, Polaris 5 C18-A reverse phase, 0.1% TFA water / 0.1% TFA acetonitrile gradient, 30 min, 300 μM peptide. The essentials: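 Reverse-phase C18 HPLC used water and acetonitrile, each with 0.1% (v/v) TFA, under a constant gradient run for 30 min after injection. Samples were 300 μM peptide in acetonitrile–water (1:4).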

For orientation: MIC means the lowest concentration found to suppress growth. `CC[C@H](C)[C@H](N)C(=O)N[C@@H](CC(C)C)C(=O)N1CCC[C@H]1C(=O)N[C@@H](Cc1ccccc1)C(=O)N[C@@H](CCCCN)C(=O)N[C@@H](Cc1c[nH]c2ccccc12)C(=O)N1CCC[C@H]1C(=O)N[C@@H](Cc1c[nH]c2ccccc12)C(=O)N[C@@H](Cc1c[nH]c2ccccc12)C(=O)N1CCC[C@H]1C(=O)N[C@@H](Cc1c[nH]c2ccccc12)C(=O)N[C@@H](CCCNC(=N)N)C(=O)N[C@@H](CCCNC(=N)N)C(=O)O` [P11]: the MIC is 60 µM in series [1]; 3.7 µM in series [2]; 3.7 µM in series [3]; 30 µM in [4]; 1.87 µM in series [5]; 30 µM in series [6]. Besides, the MIC in series [7] came to 0.9 µM; in series [8] it was 1.9 µM; in series [9], 0.9 µM; in series [10] it was 1.9 µM; in series [11], 0.9 µM; in series [12], 1.9 µM. The minimal inhibitory concentration (MIC) in series [14] came to 120 µM; in series [16], 1.87 µM; in [17], 1.87 µM. For the same molecule, the “MIC under different treatments” value in series [13] and in [15] was not above 4 µM in each case.

Take ILPWKWPFWPWRR [P7]: the “activity considering MIC value/efficacy upon fuel co-incubation” value in series [18] is given as “+”; in [19] it was “+”; in [20], “X”; in series [21], “X”; in series [22], “X”; in series [23], “+”. The “activity considering MIC value/efficacy upon fuel co-incubation” value in [24] is on record as “+”; in series [25], “X”; in series [26], “Fuel x”. This molecule had a Score in series [27] of 3. The MIC in series [28] turned out to be 1.95 µM; in series [29] it was 0.9 µM; in series [8] it was 31.25 µM; in [10], 0.9 µM; in series [11], 0.9 µM; in series [12], 0.9 µM. Also, the “R t, retention time of peptide on HPLC column as a function of peptide hydrophobicity” value in series [30] is listed as 12.156 min.

The values above are taken from article PMC12442081, “Combating Fuel Biocontamination: Tailored Antimicrobial Peptides and an Innovative Delivery Strategy” (ACS Applied Bio Materials, 2025).
